24 compounds from US9688642B2, “Substituted pyrazines as GPR40 agonists” (Janssen Pharmaceutica NV, priority 2014, dated 2017) can be followed below.

Values joined by “and” are separate entries in the source; they are usually repeats but may differ in a detail not shown here. Equal values may be shown once.

For one experiment, the target named is human GPR40 (Homo sapiens (Human), UniProt O14842). In words: GPR40 calcium flux assay, HEK293 cells stably expressing human GPR40. The following applies: transfected HEK293 cells stably expressing human GPR40; individual determinations listed; read-out: hGPR40 Ca2+ Assay EC50. The class given is cell-based. How it is done: (§1) Compounds were tested in a calcium flux assay using transfected HEK293 cells stably expressing either human GPR40 or rat GPR40. Human GPR40 expressing cells were cultured in DMEM-High Glucose media supplemented with 10% fetal bovine serum, 1×L-Glutamine, 1× Penicillin/Streptomycin and 500 μg/mL G418. Rat GPR40 expressing cells were cultured in DMEM-High Glucose media supplemented with 10% fetal bovine serum and 1 μg/mL puromycin. Cells were plated into poly-D-lysine coated 384-well plates and cultured overnight in a 37° C. humidified tissue culture incubator under 5% CO2/90% O2 atmosphere. On the day of the experiment, the culture media was replaced with assay buffer (HBSS, 20 mM HEPES, 0.1% BSA) and the cells incubated at 37° C. for 1 h. Calcium-sensitive fluorescent dye (Fluo 8 No-Wash Calcium Dye, ABD Bioquest) was then added and the cells incubated for another 30 min at 37° C. followed by 15 min at room temperature while protected from the light. The cell plate and a plate of diluted compounds of Formula (I) were loaded into a fluorescent plate reader that added compounds onto the cells while measuring the fluorescence intensity of each well. The plate reader recorded fluorescence intensity at 1 second intervals for 8 min and provided the data for analysis in an Excel format. EC50 values were calculated using Prism (GraphPad) software.
Chain of human GPR40 (O14842 whole entry): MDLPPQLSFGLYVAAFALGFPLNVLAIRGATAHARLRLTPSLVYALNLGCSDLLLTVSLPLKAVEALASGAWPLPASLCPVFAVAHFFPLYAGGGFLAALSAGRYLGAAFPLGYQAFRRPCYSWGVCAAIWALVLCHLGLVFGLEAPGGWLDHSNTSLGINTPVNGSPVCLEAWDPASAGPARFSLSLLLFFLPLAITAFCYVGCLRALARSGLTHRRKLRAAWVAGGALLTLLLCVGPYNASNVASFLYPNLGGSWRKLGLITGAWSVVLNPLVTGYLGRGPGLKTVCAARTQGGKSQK

The target of a further experiment is rat GPR40 (Rattus norvegicus (Rat), UniProt Q8K3T4). In words: GPR40 calcium flux assay, HEK293 cells stably expressing rat GPR40. The class given is cell-based. The following applies: transfected HEK293 cells stably expressing rat GPR40; individual determinations listed; read-out: rGPR40 Ca2+ Assay EC50. On the procedure: as §1
Chain of rat GPR40 (Q8K3T4 whole entry): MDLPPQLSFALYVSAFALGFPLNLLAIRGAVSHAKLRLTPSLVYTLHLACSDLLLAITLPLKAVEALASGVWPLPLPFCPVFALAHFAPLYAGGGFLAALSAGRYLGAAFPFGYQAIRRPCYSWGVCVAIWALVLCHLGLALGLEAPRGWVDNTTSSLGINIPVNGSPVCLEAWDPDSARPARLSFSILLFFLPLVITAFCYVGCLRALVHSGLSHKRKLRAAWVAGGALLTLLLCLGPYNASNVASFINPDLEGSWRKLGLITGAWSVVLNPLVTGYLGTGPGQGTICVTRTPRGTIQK

Regarding `COc1ccc(F)c(-c2ncc(COc3cccc([C@@H](CC(=O)O)C4CC4)c3)nc2-c2cc(C)cc(C)c2)c1` [Cpd 10, (3S)-3-cyclopropyl-3-[3-[[6-(3,5-dimethylphenyl)-5-(2-fluoro-5-methoxy-phenyl)pyrazin-2-yl]methoxy]phenyl]propanoic acid], the EC50 on human GPR40 was 8 nM and 7 nM; on rat GPR40 it was 33 nM and 29 nM.
As for `COc1cccc(-c2ncc(COc3cccc([C@@H](CC(=O)O)C4CC4)c3)nc2C2=CCCC2(C)C)c1` [Cpd 35, (3S)-3-cyclopropyl-3-[3-[[6-(5,5-dimethylcyclopenten-1-yl)-5-(3-methoxyphenyl)pyrazin-2-yl]methoxy]phenyl]propanoic acid], the EC50 on human GPR40 was 50 nM and 25 nM; at rat GPR40, 356 nM and 242 nM.
For the compound `COc1cc(-c2ncc(COc3cccc([C@@H](CC(=O)O)C4CC4)c3)nc2C=C(C)C)c(F)cn1` [Cpd 11, (3S)-3-cyclopropyl-3-[3-[[5-(5-fluoro-2-methoxy-4-pyridyl)-6-(2-methylprop-1-enyl)pyrazin-2-yl]methoxy]phenyl]propanoic acid], the EC50 on human GPR40 was 11 nM and 7 nM; on rat GPR40 it was 29 nM and 23 nM.
For `COc1ccc(F)c(-c2ncc(COc3cccc([C@@H](CC(=O)O)C4CC4)c3)nc2OCC(C)C)c1` [Cpd 14, (3S)-3-cyclopropyl-3-[3-[[5-(2-fluoro-5-methoxy-phenyl)-6-isobutoxy-pyrazin-2-yl]methoxy]phenyl]propanoic acid], the EC50 is 10 nM (2×) and 9 nM at human GPR40; 16 nM and 32 nM and 31 nM and 21 nM and 18 nM at rat GPR40.
On to `COc1ccc(F)c(-c2ncc(COc3cccc([C@@H](CC(=O)O)C4CC4)c3)nc2N(C)C)c1` [Cpd 38, (3S)-3-cyclopropyl-3-[3-[[6-(dimethylamino)-5-(2-fluoro-5-methoxy-phenyl)pyrazin-2-yl]methoxy]phenyl]propanoic acid], for which the half-maximal effective concentration (EC50) at human GPR40 is 55 nM and 42 nM; at rat GPR40, 399 nM and 395 nM.
Regarding `COc1ccc(F)c(-c2ncc(COc3cccc([C@@H](CC(=O)O)C4CC4)c3)nc2OC2CCCCC2)c1` [Cpd 7, (3S)-3-[3-[[6-(cyclohexoxy)-5-(2-fluoro-5-methoxy-phenyl)pyrazin-2-yl]methoxy]phenyl]-3-cyclopropyl-propanoic acid], the EC50 at human GPR40 is 7 nM and 6 nM; on rat GPR40, 29 nM and 27 nM.
On to `COc1cc(-c2ncc(COc3cccc([C@@H](CC(=O)O)C4CC4)c3)nc2OC2CCCC2)c(F)cn1` [Cpd 16, (3S)-3-[3-[[6-(cyclopentoxy)-5-(5-fluoro-2-methoxy-4-pyridyl)pyrazin-2-yl]methoxy]phenyl]-3-cyclopropyl-propanoic acid], for which the EC50 was 11 nM and 10 nM at human GPR40; 38 nM and 36 nM at rat GPR40.
`COc1ccc(F)c(-c2ncc(COc3cccc([C@@H](CC(=O)O)C4CC4)c3)nc2NCC(C)(C)C)c1` [Cpd 44, (3S)-3-cyclopropyl-3-[3-[[6-(2,2-dimethylpropylamino)-5-(2-fluoro-5-methoxy-phenyl)pyrazin-2-yl]methoxy]phenyl]propanoic acid]: the EC50 on human GPR40 is 17 nM and 11 nM; at rat GPR40, 59 nM and 69 nM.
`COc1ccc(F)c(-c2ncc(COc3cccc([C@@H](CC(=O)O)C4CC4)c3)nc2OC2CCCCCC2)c1` [Cpd 27, (3S)-3-[3-[[6-(cycloheptoxy)-5-(2-fluoro-5-methoxy-phenyl)pyrazin-2-yl]methoxy]phenyl]-3-cyclopropyl-propanoic acid]: the EC50 at human GPR40 was 28 nM and 21 nM; on rat GPR40, 48 nM and 34 nM.
Take `COc1ccc(F)c(-c2ncc(COc3cccc([C@@H](CC(=O)O)C4CC4)c3)nc2OC(C)C)c1` [Cpd 29, (3S)-3-cyclopropyl-3-[3-[[5-(2-fluoro-5-methoxy-phenyl)-6-isopropoxy-pyrazin-2-yl]methoxy]phenyl]propanoic acid]: the 50% effective concentration (EC50) on human GPR40 is 39 nM and 30 nM and 21 nM and 26 nM and 23 nM; on rat GPR40, 73 nM (2×) and 56 nM and 98 nM and 62 nM.
Turning to `COc1ccc(F)c(-c2ncc(COc3cccc([C@@H](CC(=O)O)C4CC4)c3)nc2OC2COC2)c1` [Cpd 41, (3S)-3-cyclopropyl-3-[3-[[5-(2-fluoro-5-methoxy-phenyl)-6-(oxetan-3-yloxy)pyrazin-2-yl]methoxy]phenyl]propanoic acid], the EC50 on human GPR40 was 79 nM and 69 nM; at rat GPR40 it was 553 nM and 416 nM.
In the case of `COc1ccc(F)c(-c2ncc(COc3cccc([C@@H](CC(=O)O)C4CC4)c3)nc2-c2ccc(C(C)(C)C)s2)c1` [Cpd 43, (3S)-3-[3-[[6-(5-tert-butyl-2-thienyl)-5-(2-fluoro-5-methoxy-phenyl)pyrazin-2-yl]methoxy]phenyl]-3-cyclopropyl-propanoic acid], the EC50 at human GPR40 was 15 nM and 12 nM; at rat GPR40 it was 81 nM and 55 nM.
With `COc1ccc(F)c(-c2ncc(COc3cccc([C@@H](CC(=O)O)C4CC4)c3)nc2OCC(C)(C)C)c1` [Cpd 4, (3S)-3-cyclopropyl-3-[3-[[6-(2,2-dimethylpropoxy)-5-(2-fluoro-5-methoxy-phenyl)pyrazin-2-yl]methoxy]phenyl]propanoic acid], the EC50 on human GPR40 was 9 nM and 3 nM and 2 nM; on rat GPR40, 13 nM (2×) and 9 nM.
Consider `COc1ccc(F)c(-c2ncc(COc3cccc([C@@H](CC(=O)O)C4CC4)c3)nc2OCCC(F)(F)F)c1` [Cpd 32, (3S)-3-cyclopropyl-3-[3-[[5-(2-fluoro-5-methoxy-phenyl)-6-(3,3,3-trifluoropropoxy)pyrazin-2-yl]methoxy]phenyl]propanoic acid], for which the EC50 on human GPR40 is 30 nM and 28 nM; at rat GPR40 it was 119 nM and 94 nM.
As to `COc1ccc(F)c(-c2ncc(COc3cccc([C@@H](CC(=O)O)C4CC4)c3)nc2C2CC2)c1` [Cpd 39, (3S)-3-cyclopropyl-3-[3-[[6-cyclopropyl-5-(2-fluoro-5-methoxy-phenyl)pyrazin-2-yl]methoxy]phenyl]propanoic acid], the EC50 at human GPR40 was 130 nM and 98 nM and 64 nM and 50 nM; at rat GPR40, 395 nM and 358 nM and 247 nM and 208 nM.
As for `COc1cc(-c2ncc(COc3cccc([C@@H](CC(=O)O)C4CC4)c3)nc2OCC(C)(C)C)c(F)cn1` [Cpd 47, (3S)-3-cyclopropyl-3-[3-[[6-(2,2-dimethylpropoxy)-5-(5-fluoro-2-methoxy-4-pyridyl)pyrazin-2-yl]methoxy]phenyl]propanoic acid], the concentration for a half-maximal effect (EC50) at human GPR40 was 3 nM; on rat GPR40 it was 13 nM and 14 nM.
With `COc1ccc(F)c(-c2ncc(COc3cccc([C@@H](CC(=O)O)C4CC4)c3)nc2-c2cccc(C)c2)c1` [Cpd 20, (3S)-3-cyclopropyl-3-[3-[[5-(2-fluoro-5-methoxy-phenyl)-6-(m-tolyl)pyrazin-2-yl]methoxy]phenyl]propanoic acid], the EC50 on human GPR40 is 15 nM and 11 nM; on rat GPR40, 90 nM and 78 nM.
`COc1ccc(F)c(-c2ncc(COc3cccc([C@@H](CC(=O)O)C4CC4)c3)nc2OC2CC(C)(C)CC(C)(C)C2)c1` [Cpd 24, (3S)-3-cyclopropyl-3-[3-[[5-(2-fluoro-5-methoxy-phenyl)-6-(3,3,5,5-tetramethylcyclohexoxy)pyrazin-2-yl]methoxy]phenyl]propanoic acid]: the EC50 is 24 nM and 16 nM and 40 nM on human GPR40; 187 nM and 178 nM and 183 nM on rat GPR40.
Turning to `COc1ccc(F)c(-c2ncc(COc3cccc([C@@H](CC(=O)O)C4CC4)c3)nc2-c2ccccc2)c1` [Cpd 18, (3S)-3-cyclopropyl-3-[3-[[5-(2-fluoro-5-methoxy-phenyl)-6-phenyl-pyrazin-2-yl]methoxy]phenyl]propanoic acid], the EC50 on human GPR40 was 13 nM and 10 nM; on rat GPR40 it was 105 nM and 67 nM.
Take `COc1cc(-c2ncc(COc3cccc([C@@H](CC(=O)O)C4CC4)c3)nc2-c2ccc(C)s2)c(F)cn1` [Cpd 28, (3S)-3-cyclopropyl-3-[3-[[5-(5-fluoro-2-methoxy-4-pyridyl)-6-(5-methyl-2-thienyl)pyrazin-2-yl]methoxy]phenyl]propanoic acid]: the EC50 at human GPR40 is 26 nM and 23 nM; at rat GPR40 it was 57 nM and 54 nM.
As for `COc1ccc(F)c(-c2ncc(COc3cccc([C@@H](CC(=O)O)C4CC4)c3)nc2-c2sccc2C)c1` [Cpd 33, (3S)-3-cyclopropyl-3-[3-[[5-(2-fluoro-5-methoxy-phenyl)-6-(3-methyl-2-thienyl)pyrazin-2-yl]methoxy]phenyl]propanoic acid], the EC50 at human GPR40 is 34 nM and 27 nM; on rat GPR40, 120 nM and 110 nM and 100 nM and 82 nM.
Regarding `COc1cc(-c2ncc(COc3cccc([C@@H](CC(=O)O)C4CC4)c3)nc2C2=CCCC2(C)C)c(F)cn1` [Cpd 15, (3S)-3-cyclopropyl-3-[3-[[6-(5,5-dimethylcyclopenten-1-yl)-5-(5-fluoro-2-methoxy-4-pyridyl)pyrazin-2-yl]methoxy]phenyl]propanoic acid], the EC50 is 15 nM and 7 nM on human GPR40; 21 nM and 15 nM at rat GPR40.
Take `COc1cc(-c2ncc(COc3cccc([C@@H](CC(=O)O)C4CC4)c3)nc2OCC(C)C)c(F)cn1` [Cpd 12, (3S)-3-cyclopropyl-3-[3-[[5-(5-fluoro-2-methoxy-4-pyridyl)-6-isobutoxy-pyrazin-2-yl]methoxy]phenyl]propanoic acid]: the EC50 at human GPR40 was 11 nM and 8 nM; on rat GPR40, 24 nM and 21 nM.
As for `COc1ccc(F)c(-c2ncc(COc3cccc([C@@H](CC(=O)O)C4CC4)c3)nc2-c2ccc(C)s2)c1` [Cpd 36, (3S)-3-cyclopropyl-3-[3-[[5-(2-fluoro-5-methoxy-phenyl)-6-(5-methyl-2-thienyl)pyrazin-2-yl]methoxy]phenyl]propanoic acid], the concentration for a half-maximal effect (EC50) at human GPR40 was 40 nM and 38 nM; at rat GPR40 it was 118 nM and 109 nM and 105 nM and 86 nM.
